Entries after “also recorded” stand apart in the source; their conditions may differ. Read-outs that look alike come from different tables or passages of the source.
Assays:
[1] = Cell-absent control: nonspecific binding with the cell culture plate; assay type: in vitro ADME; conditions: input 10, 20, 2, 20 μM for 1–4
[2] = Parallel artificial membrane permeability assay; assay type: in vitro ADME; conditions: PAMPA
MDA-MB-231 cells [3] = conditions: for dose dependence of the cellular uptake: 10% FBS (1 and 2) or 5% FBS (3 and 4); for intracellular concentration relative to the input concentration: 24 h, volume of one million cells about 5.5 μL; for incubation time to maximum intracellular concentration: MDA-MB-231 cells; for intracellular moles relative to that of 4: 5% FBS
bromodomains = conditions: cited from earlier work
MDA-MB-231 cells [4] = assay type: in vitro ADME; conditions: for nonspecific binding, 4 °C incubation (decrease of intracellular concentration): 6 h, compared with direct solvent extraction
MDA-MB-231 cells [5] = conditions: MDA-MB-231, 24 h; input 10, 20, 2, 20 μM for 1–4
[6] = Stability in DMEM media with or without 10% FBS; assay type: physicochemical; conditions: 72 h, negligible difference between samples with and without serum

| SMILES | nonspecific binding to the plates, percent of input concentration [1] | dose dependence of the cellular uptake (MDA-MB-231 cells [3]; 6 h) | inhibitory activities in cell-based NanoBRET assays (bromodomains) | nonspecific binding, 4 °C incubation (decrease of intracellular concentration) (MDA-MB-231 cells [4]) | intracellular concentration relative to the input concentration (MDA-MB-231 cells [3]; input 10, 20, 2, 20 μM for 1–4) | incubation time to maximum intracellular concentration (MDA-MB-231 cells [3]) | other results |
| --- | --- | --- | --- | --- | --- | --- | --- |
| CC(=O)c1cc(-c2cc(C(=O)NC3CC3)ccc2C)c2ncccn12 [Compound 1, TP-472, reference compound] | 1% | first order | submicromolar | 77% | – | – | permeability through the artificial membrane [2]: good permeability |
| Cc1cc2c(cc1N1C(=O)c3cccc4c(CCCO)ccc(c34)C1=O)n(C)c(=O)n2C [Compound 2, BAY-299, reference compound] | – | first order | submicromolar | – | – | – | cellular uptake (percent of the compound accumulated in the cells) (MDA-MB-231 cells [5]): < 1%; increase in inhibitor cellular uptake (MDA-MB-231 cells [3]; 10-time increase in the input concentration (20–200 μM), 6 h): 13 times |
| Cl.Cl.O=C(Nc1ccc(O[C@H]2CCNC2)c(-c2ccc(F)cc2)c1)c1ccc(O[C@H]2CCNC2)c(-c2ccc(F)c(F)c2)c1 [Compound 3] | – | logarithmic pattern (saturation kinetics) | – | 15% | about 600 times | 3 to 6 h | cell permeability relative to 4 (MDA-MB-231 cells [3]; equal input concentrations compared (Figure 6)): 1.7 times; intracellular moles relative to that of 4 (MDA-MB-231 cells [3]; input concentration 2 μM, 6 h): 1.9 times; intracellular moles relative to that of 4 (MDA-MB-231 cells [3]; input concentration 20 μM, 6 h): 1.5 times |
| Cl.Cl.O=C(c1cc(F)cc(N2CCNCC2)c1)N1CCN(C(=O)c2ccc(O[C@H]3CCNC3)c(C3CCCCC3)c2)CC1 [Compound 4] | 1% | plateaued when the input concentration was increased from 20 to 200 μM; also recorded: saturated at input concentrations >20 μM | – | 4% | ~65 times | 3 to 6 h | rate of decrease of intracellular moles (MDA-MB-231 cells [3]; input 20 μM, over 72 h, first order): about 85.5 ± 8.2 pmol/(million cells × h); time dependence of intracellular moles (metabolic stability in cells) (MDA-MB-231 cells [3]; over 72 h, input 10, 20, 2, 20 μM for 1–4): less stable; compound remaining (percent of the initial concentration) [6]: about 85% |
| CCOC(=O)CCCn1c2ccccc2c2nc3nonc3nc21 [Compound 8] | – | – | – | – | – | – | cell-bound inhibitors at 4 °C (MDA-MB-231 cells [4]): little or no nonspecific binding |

From PMC7771553 (Journal of medicinal chemistry, 2017)
